Data: US6915969B2, “Method and installation for making flour from ozone-treated grains” (Green Technologies Sarl, priority 1999, dated 2005)

Test: reduction of pesticide contaminants
Parameters: species or system wheat
Settings: after treatment by the method of the invention (ozone)
Source text: A reduction of about 80% in the content of Chlorpyriphosmethyl (a pesticide generally used in the case of wheat) was thus observed, thus leading certainly to a product which is perfectly acceptable from the point of view of the current food standards.

With `COP(=S)(OC)Oc1nc(Cl)c(Cl)cc1Cl` [Chlorpyriphosmethyl] as the compound, how does the “reduction in the content of Chlorpyriphosmethyl” value read?
The value was “about 80%”.
